Columns and labels:
[1] = Short-chain fatty acid producing abilities of Composition F strains
[2] = tested on: Clostridium difficile infection (CDI); details: cited from earlier work

Compound	SCFAs (short chain fatty acids produced) [1]	treated patients experiencing CDI relapse ([2]; CDI patients)	preventing recurrent CDI ([2]; comparison with vancomycin)
Bacteroides cellulosilyticus	A, S	–	–
CCc1c(Cl)c(O)c(Cl)c(O)c1C(=O)O[C@H]1[C@H](O)[C@H](OC)[C@H](OC/C2=C\C=C\C[C@H](O)/C(C)=C/[C@H](CC)[C@@H](O[C@@H]3OC(C)(C)[C@@H](OC(=O)C(C)C)[C@H](O)[C@@H]3O)/C(C)=C/C(C)=C/C[C@@H]([C@@H](C)O)OC2=O)O[C@@H]1C [fidaxomicin]	–	14%	superior to vancomycin
